Measurements: US20130143929A1, “FUNGICIDAL IMIDAZOLES” (EI DU PONT DE NEMOURS AND COMPANY, priority 2010, published 2013)
Marks after values point to notes of the source that are not given here.

Legend:
Assay type in all cases: in vivo
[1] = tested on: Puccinia recondite f. sp. tritici (the causal agent of wheat leaf rust); assay: Test A: wheat leaf rust, preventive spray on wheat seedlings, visual disease rating; conditions: for Test A rating (100 = 100% disease control, 0 = no disease control relative to the controls): wheat leaf rust, preventive spray on wheat seedlings
Outline: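 Wheat seedlings were sprayed to run-off with compound suspended in acetone/water containing 250 ppm Trem 014 (200 ppm ≈ 800 g/ha; some at 40 ppm). Puccinia recondite spores were inoculated the next day. Plants were held 24 h saturated at 20° C, then 7 days at 20° C, and disease control was rated visually on a 0–100 scale against controls.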

[2] = tested on: Septoria tritici (the causal agent of wheat leaf blotch); assay: Test B: wheat leaf blotch, preventive spray on wheat seedlings, visual disease rating; conditions: for Test B rating (100 = 100% disease control, 0 = no disease control relative to the controls): wheat leaf blotch, preventive spray on wheat seedlings
Outline: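 Wheat seedlings sprayed to run-off with compound suspension (acetone/water with 250 ppm Trem 014; 200 ppm ≈ 800 g/ha, some at 40 ppm), inoculated next day with Septoria tritici spores. 48 h saturated humidity at 24 °C, then 19 days at 20 °C; visual rating, 100 = full control.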

[3] = tested on: Botrytis cinerea (the causal agent of tomato Botrytis); assay: Test C: tomato Botrytis, preventive spray on tomato seedlings, visual disease rating; conditions: for Test C rating (100 = 100% disease control, 0 = no disease control relative to the controls): tomato Botrytis, preventive spray on tomato seedlings
Outline: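 Test suspension (acetone/water with 250 ppm Trem 014; 200 ppm equivalent to 800 g/ha) sprayed to run-off on tomato seedlings; B. cinerea spores inoculated next day. After 48 h saturated humidity at 20° C then 3 days at 24° C, disease rated visually as % control relative to untreated controls (0–100).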

[4] = tested on: Blumeria graminis f. sp. tritici (also known as Erysiphe graminis f. sp. tritici, the causal agent of wheat powdery mildew); assay: Test D: wheat powdery mildew, preventive spray on wheat seedlings, visual disease rating; conditions: for Test D rating (100 = 100% disease control, 0 = no disease control relative to the controls): wheat powdery mildew, preventive spray on wheat seedlings
Outline: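 Compound suspended in acetone/water (50/50) with 250 ppm Trem 014 and sprayed to run-off on wheat seedlings (200 ppm ≈ 800 g/ha), then inoculated next day with spore dust. Disease rated visually after 8 days at 20 °C as % control relative to untreated plants (0-100).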

[5] = no asterisk (standard test suspension concentration, not 40 ppm)
[6] = asterisk: 40 ppm test suspension
[7] = asterisk: 40 ppm test suspension, 100 = 100% disease control, 0 = no control

SMILES	Test A rating (100 = 100% disease control, 0 = no disease control relative to the controls) [1, 5] [%]	Test B rating (100 = 100% disease control, 0 = no disease control relative to the controls) [2, 5] [%]	Test C rating (100 = 100% disease control, 0 = no disease control relative to the controls) [3, 5] [%]	Test D rating (100 = 100% disease control, 0 = no disease control relative to the controls) [4, 5] [%]	Test A rating (100 = 100% disease control, 0 = no disease control relative to the controls) [1, 6]	Test B rating (100 = 100% disease control, 0 = no disease control relative to the controls) [2, 6]	Test C rating (100 = 100% disease control, 0 = no disease control relative to the controls) [3, 6]	Test D rating (100 = 100% disease control, 0 = no disease control relative to the controls) [4, 6]	other results
COc1cc(F)c(C(O)c2c(Br)nc(C)n2-c2ccc(F)cc2Cl)c(F)c1 (stereo not shown) [compound 364]	100	100	100	95	–	–	–	–	–
Cc1ncc(C(O)c2ccc(Cl)cc2Cl)n1-c1c(F)cc(F)cc1Cl (stereo not shown) [compound 371]	95	100	58	0	–	–	–	–	–
COc1cc(F)c(C(O)c2cnc(C)n2-c2ccc(F)cc2Cl)c(F)c1 (stereo not shown) [compound 363]	98	74	9	0	–	–	–	–	–
OC(c1ccc(F)cc1Cl)c1cnc(C2CC2)n1-c1c(F)cccc1Br (stereo not shown) [compound 75]	94	1	0	0	–	–	–	–	–
OC(c1ccc(Cl)cc1)c1c(Cl)nc(Cl)n1-c1c(F)cc(F)cc1Br (stereo not shown) [compound 44]	99	100	99	88	–	–	–	–	–
Cc1nc(Cl)c(C(O)c2ccc(F)cc2Cl)n1-c1c(F)cc(F)cc1Cl (stereo not shown) [compound 64]	–	–	–	–	100* %	100* %	99* %	93* %	–
Cc1nc(Cl)c(C(O)c2ccc(F)cc2Cl)n1-c1ccc(F)cc1F (racemic) [compound 241]	–	–	–	–	100* %	100* %	99* %	21* %	–
Cc1nc(Cl)c(C(O)c2ccc(Cl)cc2Cl)n1-c1ccc(F)cc1F (racemic) [compound 270]	–	–	–	–	95* %	69* %	0* %	0* %	–
COc1cc(F)c(-n2c(C)nc(Cl)c2C(O)c2ccc(F)cc2Cl)c(F)c1 (stereo not shown) [compound 403]	–	–	–	–	–	–	–	–	Test A rating (% disease control, wheat leaf rust) [1, 7]: 99* %; Test B rating (% disease control, wheat leaf blotch) [2, 7]: 100* %; Test C rating (% disease control, tomato Botrytis) [3, 7]: 8* %; Test D rating (% disease control, wheat powdery mildew) [4, 7]: 0* %
Cc1nc(Br)c(C(O)c2ccc(F)cc2F)n1-c1c(F)cc(Cl)cc1F (stereo not shown) [compound 126]	–	–	–	–	96* %	100* %	0* %	0* %	–
